# How the values were obtained:
# Assay in all cases: relative viability (nuclei count vs DMSO), 5 days (fraction); higher = more cells survive
# [1] = compound: CC(C)CCN1c2nc(Nc3cc(F)c(O)c(F)c3)ncc2N(C)C(=O)C1C [BI-D1870] + CC(=O)c1c(C)c2cnc(Nc3ccc(N4CCNCC4)cn3)nc2n(C2CCCC2)c1=O [Palbociclib] (partner 0.5 µM)
# Procedure, shortened: (§1)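 Nuclei were stained with Hoechst during a one-step fixation (final 0.05% Triton X-100, 1% formaldehyde, 1 ug/ml Hoechst) carried out 5 days after dosing, then counted on 4× images. The cells, lung cancer lines in 1536-well plates, had been dosed by pin tool the day after seeding with one drug alone or a fixed anchor-drug dose plus five library-drug doses (not always all listed) in √10 steps. Relative viability is the nuclei count in treated wells divided by that in vehicle wells, and each value is the median of duplicate plates.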
# [2] = compound: CC(C)CCN1c2nc(Nc3cc(F)c(O)c(F)c3)ncc2N(C)C(=O)C1C [BI-D1870] + C[C@]1(O)C[C@@H](c2nc(-c3ccc4ccc(-c5ccccc5)nc4c3)c3c(N)nccn32)C1 [Linsitinib] (partner 1 µM)
# Procedure, shortened: as §1
# [3] = compound: CC(C)CCN1c2nc(Nc3cc(F)c(O)c(F)c3)ncc2N(C)C(=O)C1C [BI-D1870] + O=C(c1cc(Cc2n[nH]c(=O)c3ccccc23)ccc1F)N1CCN(C(=O)C2CC2)CC1 [Olaparib] (partner 8 µM)
# Procedure, shortened: as §1
# [4] = compound: O=c1ncccn1[C@@H]1O[C@H](CO)[C@@H](O)[C@H]1O [Zebularine] + C[C@@H](Oc1cc(-c2cnn(C3CCNCC3)c2)cnc1N)c1c(Cl)ccc(F)c1Cl [Crizotinib] (partner 1 µM)
# Procedure, shortened: as §1
cell line,measurement,setting,value
UMC-11,relative viability,[1]; first compound 0.04 µM,0.331
same,relative viability,[1]; first compound 0.1265 µM,0.347
same,relative viability,[1]; first compound 0.4 µM,0.327
same,relative viability,[1]; first compound 1.265 µM,0.309
same,relative viability,[1]; first compound 4 µM,0.272
same,relative viability,[2]; first compound 0.04 µM,1.06
same,relative viability,[2]; first compound 0.1265 µM,0.924
same,relative viability,[2]; first compound 0.4 µM,0.972
same,relative viability,[2]; first compound 1.265 µM,1.06
same,relative viability,[2]; first compound 4 µM,0.693
same,relative viability,[3]; first compound 0.04 µM,0.36
same,relative viability,[3]; first compound 0.1265 µM,0.363
same,relative viability,[3]; first compound 0.4 µM,0.369
same,relative viability,[3]; first compound 1.265 µM,0.374
same,relative viability,[3]; first compound 4 µM,0.204
same,relative viability,[4]; first compound 1 µM,0.666
same,relative viability,[4]; first compound 3.162 µM,0.489
same,relative viability,[4]; first compound 10 µM,0.397
same,relative viability,[4]; first compound 31.62 µM,0.374
same,relative viability,[4]; first compound 100 µM,0.343

# Source: the supplement of paper PMC10307832
